Patent publication US6663862B1, “Reagents for detection and purification of antibody fragments” (Duke University, priority 1999, dated 2003)
Where a chain is given by its changes, count along the chain named. pKd: −log10 of the molar value. Marks after values point to notes of the source that are not given here.

Test system: Fc fragment of human IgG
Test: Binding of B1 mutants to human IgG Fc fragment (acrylodan fluorescence titration; competition assay for weak binders)
Settings: for DDG = −RTIn (Kd wild type/Kd mutant): T = 298K, relative to Q32C wild-type construct; for pKd: hFc, Q32C background, 20 mM KPO4 (pH 6.0), 25° C., direct titration, or competition with labeled wild-type B1-hFc complex for weak binders; for fold increase in Kd: hFc binding, relative to wild-type (Q32C) B1
Excerpt: Fluorophore coupling and iodoacetamide blocking. All of the above mutations were constructed into the Q32C background to allow site-specific covalent coupling with acrylodan for fluorescent binding assays as described by Sloan, D. J. and Hellinca, H. W. (1998) Prot. Eng. 11:819-823. In competitive binding experiments between fluorescently labeled wild-type B1 and unlabeled mutants, the free thiol in the mutant protein was blocked by reaction with iodoacetamide.
Binding of B1 mutants to human IgG Fc fragment. The binding constants for each of the alanine mutants were measured as an increase in fluorescence by direct titration of Fc fragment of human IgG (ICN Biomedicals, Costa Mesa, Calif.) into a solution containing 250nM acrylodan-conjugated B1 domain mutant in 20 mM KPO4 (pH 6.0) at 25° C. (excitation 392 nm; emission 500 nm; slit widths of 4 and 16 nm respectively). After each addition of protein, the solution was allowed to equilibrate for 30 seconds before the final fluorescence value was recorded.
Each titration comprised 20 points and was performed in triplicate. The data were fit to a binding isotherm that described a single binding site and takes into account all of the species present (Segel, I. H. (1975) Enzyme Kinetics, John Wiley & Sons, New York, N.Y.): [formula]
where F is the measured fluorescence with FO and Fmax representing the initial and final values, respectively. [B1]t and [hFc]t are the concentrations of B1 and hFc respectively, and the Kd is the disassociation constant. This equation is referred to herein as “Equation 1”.
The binding constants of weak binders (greater than 50-fold increases in Kd) were measured in a competition assay with a pre-formed complex (250 nM) of wild type Q32C construct conjugated to acrylodan and hFc. Binding constants were determined by measuring the decrease in fluorescence of the complex by the addition of iodoacetamide blocked mutant B1 domains. From these competition binding curves the Kd for each of the mutant B1 domains was calculated from the binding isotherm (Fierke, C. A. et al. (1991) Biochemistry 30:11054-11063): [formula]
where F is the measured fluorescence with Fo and Ff representing the initial and final values respectively. [B1wt] and [B1mut] are the concentrations of B1 wild type and mutant respectively, and the Kd is the disassociation constant of the mutant or wild type. This Equation is referred to herein as “Equation 2”.
Binding studies. The interaction of the mutant B1 domain with the hFc was measured using a fluorescence method described by Sloan, D. J. and Hellinga, H. W. (1998) Prot. Eng. 11:819-823, which relies on the attachment of an environmentally sensitive fluorophore placed at the rim of the binding site in a location such that its fluorescence changes upon formation of the complex by virtue of alterations in conformational degrees of freedom and solvent accessibility, without adversely affecting the binding constant. Binding constants for hFc were determined in a direct titration experiment in which purified hFc was added to a solution of a Q32C B1 mutant to which the fluorophore acrylodan was covalently coupled at position 32C (FIG. 2A). The binding constants for all the B1 mutants were determined in the Q32C background (Table 4).
This approach was used to avoid having to use large quantities of pure hFc.

Substance | DDG = −RTIn (Kd wild type/Kd mutant) | pKd | fold increase in Kd
2: B1 domain of protein G, T25A mutant in Q32C background [Example 2] | 0.24 kcal/mol | 6.44 | –
1: B1 domain of protein G with Q32C mutation and His tag; the wild-type construct relative to which all measurements are made [Example 1, reference compound] | 0 kcal/mol | 6.62 | –
9: B1 domain of protein G, W43A mutant in Q32C background [Example 9] | 3.8 kcal/mol | 3.85 | 580 fold
3: B1 domain of protein G, E27A mutant in Q32C background [Example 3] | >4.9^f kcal/mole | < 3.00 | > 4000 fold
4: B1 domain of protein G, K28A mutant in Q32C background [Example 4] | 1.3 kcal/mol | 5.70 | –
7: B1 domain of protein G, D40A mutant in Q32C background [Example 7] | 0.3 kcal/mol | 6.42 | –
6: B1 domain of protein G, N35A mutant in Q32C background [Example 6] | 2.4 kcal/mol | 4.89 | 50 fold
10: B1 domain of protein G, T44/Y45A mutant in Q32C background [Example 10] | 2.0 kcal/mol | 5.19 | –
5: B1 domain of protein G, K31A mutant in Q32C background [Example 5] | 3.5 kcal/mol | 4.07 | 350 fold
8: B1 domain of protein G, E42A mutant in Q32C background [Example 8] | 0.4 kcal/mol | 6.34 | –
